This note sets out measurements from US20110281901A1, “PHARMACEUTICAL COMPOSITIONS AND METHODS OF MAKING SAME” (GLAXO WELLCOME MANUFACTURING PTE LTD., priority 2010, published 2011).

In general, solubility refers to how much of the substance goes into solution per volume. A low value points to little dissolved substance.

Values after ≈ are worked out from the molar mass of the structure shown.

Data set [1] is described as follows: physchem. The following applies: phosphate buffer, 25 °C, pH 5, aqueous buffer.
Data set [2] in a line: Solubility of pazopanib free base in phosphate buffer. The following applies: 25° C., pH 3.5.

In data set [1], `Cc1ccc(Nc2nccc(N(C)c3ccc4c(C)n(C)nc4c3)n2)cc1S(N)(=O)=O` [pazopanib free base, 5-[[4-[(2,3-dimethyl-2H-indazol-6-yl)methylamino]-2-pyrimidinyl]amino]-2-methylbenzenesulfonamide] displayed a solubility of about 6 ng/mL (≈ 0.0137 µM). The same compound had an approximate solubility in data set [2] of about 20000 ng/mL.
